From the supplement of paper PMC10307832

Assays:
Assay in all cases: relative viability (nuclei count vs DMSO), 5 days (fraction); higher = more cells survive
[1] = compound: C1=CC=C(C(=C1)C2=CC=C(C=C2)C3=CSC4=C3C(=C(C(=O)N4)C#N)O)O + COc1cccc2cc(-c3nc([C@H]4CC[C@H](C(=O)O)CC4)n4ncnc(N)c34)[nH]c12 [OSI-027] (partner 0.5 µM)
Outline: (§1)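 Cells from lung cancer lines were seeded into 1536-well plates and, one day later, dosed by pin tool. Treatments were either a single drug or a fixed dose of an anchor drug with five library-drug doses (not always all listed) in √10 steps. After 5 days, nuclei were stained in a one-step fixation (final 0.05% Triton X-100, 1% formaldehyde, 1 ug/ml Hoechst) and counted on 4× images, and relative viability is the treated-to-vehicle nuclei ratio, as the median of duplicate plates.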

[2] = compound: C1=CC=C(C(=C1)C2=CC=C(C=C2)C3=CSC4=C3C(=C(C(=O)N4)C#N)O)O + Nc1ncn([C@H]2C[C@H](O)[C@@H](CO)O2)c(=O)n1 [Decitabine] (partner 2 µM)
Outline: as §1

TGX 221 + AZD7762 = compound: CC1=CN2C(=O)C=C(N=C2C(=C1)C(C)NC3=CC=CC=C3)N4CCOCC4 [TGX 221] + NC(=O)Nc1cc(-c2cccc(F)c2)sc1C(=O)N[C@H]1CCCNC1 [AZD7762] (partner 0.2 µM)
Outline: as §1

TGX 221 + Navitoclax = compound: CC1=CN2C(=O)C=C(N=C2C(=C1)C(C)NC3=CC=CC=C3)N4CCOCC4 [TGX 221] + CC1(C)CCC(c2ccc(Cl)cc2)=C(CN2CCN(c3ccc(C(=O)NS(=O)(=O)c4ccc(N[C@H](CCN5CCOCC5)CSc5ccccc5)c(S(=O)(=O)C(F)(F)F)c4)cc3)CC2)C1 [Navitoclax] (partner 0.5 µM)
Outline: as §1

| Cell Line | relative viability ([1]; first compound 0.08 µM) | relative viability ([1]; first compound 0.253 µM) | relative viability ([1]; first compound 0.8 µM) | relative viability ([1]; first compound 2.53 µM) | relative viability ([1]; first compound 8 µM) | relative viability ([2]; first compound 0.08 µM) | relative viability ([2]; first compound 0.253 µM) | relative viability ([2]; first compound 0.8 µM) | relative viability ([2]; first compound 2.53 µM) | relative viability ([2]; first compound 8 µM) | relative viability (TGX 221 + AZD7762; first compound 0.08 µM) | relative viability (TGX 221 + AZD7762; first compound 0.253 µM) | relative viability (TGX 221 + AZD7762; first compound 0.8 µM) | relative viability (TGX 221 + AZD7762; first compound 2.53 µM) | relative viability (TGX 221 + AZD7762; first compound 8 µM) | relative viability (TGX 221 + Navitoclax; first compound 0.08 µM) | relative viability (TGX 221 + Navitoclax; first compound 0.253 µM) | relative viability (TGX 221 + Navitoclax; first compound 0.8 µM) | relative viability (TGX 221 + Navitoclax; first compound 2.53 µM) | relative viability (TGX 221 + Navitoclax; first compound 8 µM) |
| --- | --- | --- | --- | --- | --- | --- | --- | --- | --- | --- | --- | --- | --- | --- | --- | --- | --- | --- | --- | --- |
| NCI-H2087 | 0.551 | 0.772 | 0.568 | 0.57 | 0.358 | 0.279 | 0.31 | 0.284 | 0.259 | 0.254 | 1.04 | 1.23 | 1.37 | 1.2 | 1.21 | 0.989 | 0.898 | 1.06 | 0.945 | 0.952 |
| NCI-H1666 | 0.804 | 1.09 | 0.901 | 0.777 | 0.745 | 0.662 | 0.851 | 0.742 | 0.664 | 0.601 | 0.784 | 0.861 | 0.923 | 0.8 | 0.802 | 0.935 | 0.759 | 0.749 | 0.844 | 0.927 |
| NCI-H1915 | 0.645 | 0.622 |  | 0.657 | 0.534 | 0.263 | 0.269 | 0.251 | 0.252 | 0.262 | 0.655 | 0.665 | 0.665 | 0.596 | 0.712 | 0.788 | 0.765 | 0.779 | 0.79 | 0.775 |
| RERF-LC-KJ | 0.562 | 0.755 | 0.561 | 0.551 | 0.457 | 0.762 | 0.756 | 0.609 | 0.819 | 0.681 | 0.909 | 0.926 | 0.965 | 0.863 | 0.949 |  | 0.78 | 0.913 | 0.8 | 1.14 |
| NCI-H2085 | 0.866 | 1.02 | 0.661 | 0.627 | 0.512 | 0.543 | 0.615 | 0.499 | 0.528 | 0.495 | 0.96 | 0.769 | 0.583 | 0.37 | 0.397 | 1.11 | 0.978 | 0.951 | 0.622 | 0.626 |
| PC-14 | 0.924 | 0.986 | 0.874 | 0.978 | 0.46 | 0.222 | 0.242 | 0.24 | 0.225 | 0.195 | 0.316 | 0.329 | 0.34 | 0.33 | 0.289 | 0.951 | 1 | 0.961 | 1.01 | 0.926 |
| HCC-366 | 1.32 | 1.18 | 0.875 | 0.945 | 0.719 |  | 0.46 | 0.343 | 0.332 | 0.358 | 0.325 | 0.202 | 0.242 | 0.0941 | 0.146 | 1.03 | 0.927 | 0.916 | 1.07 | 0.914 |
| NCI-H2126 | 0.639 | 0.718 | 0.654 | 0.737 | 0.708 | 0.646 | 0.617 | 0.578 | 0.622 | 0.513 | 0.943 | 0.907 | 1.04 | 0.966 | 1.15 | 0.831 | 0.835 | 0.837 | 0.752 | 0.817 |
